In patent US10058559B2, “Treatment or prevention of an intestinal disease or disorder” (The United States of America, as represented by the …, priority 2014, dated 2018):
Read-outs that look alike come from different tables or passages of the source.

How the values were obtained:
[1] = in vivo; cited from earlier work
187 kinases = details: cited from earlier work
[2] = system: panel of 460 other kinases; details: cited from earlier work
[3] = system: LRRK2 Ser910 and Ser935 phosphorylation; details: in peripheral tissues in vivo; cited from earlier work
[4] = system: LRRK2 Ser910 and Ser935 phosphorylation; details: in vitro; cited from earlier work
LRRK2 kinase = LRRK2 kinase (Homo sapiens, UniProt Q5S007); details: previously reported; cited from earlier work
Sequence of LRRK2 kinase (Q5S007 whole entry, species assumed): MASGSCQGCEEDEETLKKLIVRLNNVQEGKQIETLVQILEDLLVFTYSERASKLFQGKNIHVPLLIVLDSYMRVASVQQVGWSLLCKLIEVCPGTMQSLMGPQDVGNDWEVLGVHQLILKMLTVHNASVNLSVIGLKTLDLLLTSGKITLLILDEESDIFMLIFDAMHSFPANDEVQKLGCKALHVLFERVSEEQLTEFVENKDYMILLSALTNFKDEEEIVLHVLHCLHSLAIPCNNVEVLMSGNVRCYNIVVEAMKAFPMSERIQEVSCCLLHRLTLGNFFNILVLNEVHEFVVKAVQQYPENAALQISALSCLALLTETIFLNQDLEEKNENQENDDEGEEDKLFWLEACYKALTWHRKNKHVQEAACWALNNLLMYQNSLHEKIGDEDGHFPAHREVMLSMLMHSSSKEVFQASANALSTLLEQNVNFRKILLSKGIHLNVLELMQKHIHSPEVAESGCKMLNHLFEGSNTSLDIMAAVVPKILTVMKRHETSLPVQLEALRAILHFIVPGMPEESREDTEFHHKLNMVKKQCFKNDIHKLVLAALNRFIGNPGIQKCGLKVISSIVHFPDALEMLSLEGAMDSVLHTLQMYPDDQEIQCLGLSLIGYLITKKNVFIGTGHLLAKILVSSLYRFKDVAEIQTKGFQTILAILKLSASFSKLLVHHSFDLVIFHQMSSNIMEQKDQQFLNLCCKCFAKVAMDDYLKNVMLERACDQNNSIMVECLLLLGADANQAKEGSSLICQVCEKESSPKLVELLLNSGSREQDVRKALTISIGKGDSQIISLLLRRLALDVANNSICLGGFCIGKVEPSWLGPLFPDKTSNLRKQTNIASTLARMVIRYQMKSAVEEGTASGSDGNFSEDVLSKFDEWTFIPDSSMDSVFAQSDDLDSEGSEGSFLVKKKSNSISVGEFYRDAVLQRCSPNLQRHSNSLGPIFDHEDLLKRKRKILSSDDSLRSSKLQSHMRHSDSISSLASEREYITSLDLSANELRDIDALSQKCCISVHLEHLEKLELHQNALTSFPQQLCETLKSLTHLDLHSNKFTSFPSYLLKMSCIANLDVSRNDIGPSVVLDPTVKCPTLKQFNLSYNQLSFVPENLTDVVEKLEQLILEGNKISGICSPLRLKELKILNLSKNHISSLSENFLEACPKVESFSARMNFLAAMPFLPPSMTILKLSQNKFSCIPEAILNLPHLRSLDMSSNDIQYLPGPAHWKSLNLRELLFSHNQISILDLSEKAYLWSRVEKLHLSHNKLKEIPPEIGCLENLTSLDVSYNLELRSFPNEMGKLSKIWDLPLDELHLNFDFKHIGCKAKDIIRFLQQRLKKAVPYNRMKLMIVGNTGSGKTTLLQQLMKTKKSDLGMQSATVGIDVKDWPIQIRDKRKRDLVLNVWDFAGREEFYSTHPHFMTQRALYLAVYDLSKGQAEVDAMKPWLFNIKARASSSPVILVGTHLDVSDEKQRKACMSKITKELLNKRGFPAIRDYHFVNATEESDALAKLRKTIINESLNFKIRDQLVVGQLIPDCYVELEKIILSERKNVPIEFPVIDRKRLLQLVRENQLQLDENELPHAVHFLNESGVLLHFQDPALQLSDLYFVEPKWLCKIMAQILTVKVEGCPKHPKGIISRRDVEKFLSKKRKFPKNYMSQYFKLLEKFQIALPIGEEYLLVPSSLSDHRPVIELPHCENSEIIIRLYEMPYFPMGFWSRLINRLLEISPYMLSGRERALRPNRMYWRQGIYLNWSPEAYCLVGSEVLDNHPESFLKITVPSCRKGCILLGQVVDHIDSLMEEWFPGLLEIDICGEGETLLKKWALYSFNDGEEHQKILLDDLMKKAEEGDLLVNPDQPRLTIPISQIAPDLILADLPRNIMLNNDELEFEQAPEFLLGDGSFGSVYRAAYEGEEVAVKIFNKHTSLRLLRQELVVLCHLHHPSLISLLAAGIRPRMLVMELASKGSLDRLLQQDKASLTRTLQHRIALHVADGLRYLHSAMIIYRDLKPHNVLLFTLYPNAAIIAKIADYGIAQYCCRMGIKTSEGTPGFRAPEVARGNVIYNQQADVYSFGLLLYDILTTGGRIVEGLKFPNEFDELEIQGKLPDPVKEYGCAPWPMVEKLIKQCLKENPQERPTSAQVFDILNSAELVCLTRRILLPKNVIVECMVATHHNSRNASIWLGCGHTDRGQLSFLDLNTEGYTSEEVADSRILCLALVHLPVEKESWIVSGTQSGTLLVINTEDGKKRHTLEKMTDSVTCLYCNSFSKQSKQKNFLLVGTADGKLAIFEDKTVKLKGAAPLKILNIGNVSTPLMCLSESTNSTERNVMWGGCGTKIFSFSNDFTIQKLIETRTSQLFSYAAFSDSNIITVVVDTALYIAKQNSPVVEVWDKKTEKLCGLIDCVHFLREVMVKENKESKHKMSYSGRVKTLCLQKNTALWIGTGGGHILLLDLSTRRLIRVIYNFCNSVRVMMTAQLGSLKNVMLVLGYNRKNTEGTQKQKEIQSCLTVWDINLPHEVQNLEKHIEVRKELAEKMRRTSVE

[5] = system: panel of 136 other kinases; details: cited from earlier work
[6] = cited from earlier work
LRRK2 phosphorylation = details: mice, 30 mg/kg to 50 mg/kg i.p., in vivo; cited from earlier work
BMDC from LRRK2 Tg mice [7] = experiment: autophagy (Western blotting, LC3 puncta) in M. leprae- and ZymD-stimulated BMDC from LRRK2 Tg mice; type: cell-based
DSS-colitis = experiment: DSS (dextran-sulfate)-colitis in mice; type: in vivo
Description: In initial studies to evaluate global LRRK2 function in bowel inflammation, LRRK2-Tg mice (as well as LRRK2 KO mice) were subjected to DSS (dextran-sulfate)-colitis. […] In contrast, DSS-colitis in LRRK2 KO mice was slightly less severe than in control mice (FIG. 2a and FIG. 2b). This latter result differs from that reported by Liu et al. who found increased severity of DSS colitis in LRRK2 KO mice. This discrepancy is likely due to differences in the control mice used in the two studies: the experiments described herein used control mice that had been back-crossed for 9 generations, were housed in the same facility and exposed to the same microbiota. These studies of DSS-colitis thus indicate that increased expression of LRRK2 leads to an increased inflammatory response in experimental colitis.

BMDC from LRRK2 Tg mice [8] = experiment: ZymD-induced cytokine production in BMDC from LRRK2 Tg mice; type: cell-based; details: for ZymD-induced cytokine production: FIG. 5a and 5b
Description: Since several of the candidate susceptibility genes in IBD (e.g., NOD2 and […]) are likely to be causing disease via an abnormal innate immune response, it was reasoned that increased LRRK2 expression was leading to an enhanced inflammatory response initiated by a Pathogen Associated Molecular Patterns (PAMPs) in the gastrointestinal environment.
Furthermore, in rat microglia, LRRK2 inhibitors block TLR4-induced TNF-a and iNOS production. Based on these findings, whether LRRK2 inhibition can serve as a therapeutic target in IBD was investigated. First, ZymD-induced cytokine production in BMDC from LRRK2 Tg mice in the presence or absence of two LRRK2 inhibitors, LRRK2-IN-1 and CZC54252.

[9] = system: human BMDC derived from Crohn's disease peripheral blood; experiment: ZymD-induced TNF-alpha production in human BMDC derived from Crohn's disease peripheral blood; type: cell-based; details: human cells
[10] = ZymD-induced, BMDC from LRRK2 Tg mice

Molecule: CCNc1nc(Nc2cc(F)c(C(=O)N3CCOCC3)cc2OC)ncc1C(F)(F)F [GNE-7915, (4-((4-(ethylamino)-5-(trifluoromethyl)pyrimidin-2-yl)amino)-2-fluoro-5-methoxyphenyl)(morpholino)methanone]
- brain penetration [1]: brain-penetrant
- selectivity (kinases) (187 kinases): 1/187

Molecule: O=C(Nc1cccnc1)c1cc(-c2ccnc(F)c2)ccc1OCc1ccccc1 [GSK2578215A, 5-(2-Fluoro-4-pyridinyl)-2-(phenylmethoxy)-N-3-pyridinylbenzamide]
- selectivity for LRRK2 against a panel of 460 other kinases [2]: displays selectivity for LRRK2
- brain penetration [1]: brain penetrant
- Ser910 and Ser935 phosphorylation [3]: blocks
- Ser910 and Ser935 phosphorylation [4]: blocks

Molecule: O=C1Nc2ccc(I)cc2/C1=C/c1cc(Br)c(O)c(Br)c1 [GW5074]
- inhibitory activities of LRRK2 kinase (LRRK2 kinase): inhibitory activities

Molecule: O=S(=O)(NCCNC/C=C/c1ccc(Br)cc1)c1cccc2cnccc12 [H-89]
- inhibitory activities of LRRK2 kinase (LRRK2 kinase): inhibitory activities

Molecule: CNc1nc(Nc2ccc(C(=O)N3CCOCC3)cc2OC)ncc1Cl [HG-10-102-01, (4-(5-Chloro-4-(methylamino)pyrimidin-2-ylamino)-3-methoxyphenyl)(morpholino)methanone]
- activity toward a panel of 136 other kinases [5]: little activity
- cell permeability [6]: cell-permeable
- blood-brain-barrier crossing for LRRK2 phosphorylation inhibition (LRRK2 phosphorylation): can cross the blood-brain-barrier

Molecule: O=C1Nc2ccccc2/C1=C1/Nc2ccccc2/C1=N\O [Indirubin-3-monoxime]
- inhibitory activities of LRRK2 kinase (LRRK2 kinase): inhibitory activities

Molecule: COc1cc(C(=O)N2CCC(N3CCN(C)CC3)CC2)ccc1Nc1ncc2c(n1)N(C)c1ccccc1C(=O)N2C [LRRK2-IN-1, 5,11-Dihydro-2-[[2-methoxy-4-[[4-(4-methyl-1-piperazinyl)-1-piperidinyl]carbonyl]phenyl]amino]-5,11-dimethyl-6H-pyrimido[4,5-b][1,4]benzodiazepin-6-one]
- autophagy (Western blotting and quantitation of LC3 puncta) (BMDC from LRRK2 Tg mice [7]): reversed inhibition of autophagy
- DSS-colitis severity (DSS-colitis; LRRK2-Tg mice): amelioration
- DSS-colitis severity (DSS-colitis; wild-type mice (so in the source)): ameliorate
- ZymD-induced cytokine production (BMDC from LRRK2 Tg mice [8]; BMDC from LRRK2 Tg mice): greatly reduced
- inhibition of TNF-alpha, dose dependence (BMDC from LRRK2 Tg mice [8]; [10]): dose dependent
- production of pro-inflammatory cytokine mRNAs (TNF-alpha, TL1A, IL-23p19, IL-6 and IL-1beta mRNAs) (BMDC from LRRK2 Tg mice [8]; [10]): suppressed
- concentration required to suppress cytokine production [9]: 5 µM

Molecule: COc1cc(N2CCC(N3CCN(C)CC3)CC2)ccc1Nc1ncc(Cl)c(Nc2ccccc2S(=O)(=O)C(C)C)n1 [TAE684]
- inhibitory activities of LRRK2 kinase (LRRK2 kinase): inhibitory activities

Molecule: N-[-[[5-Chloro-2-[[2-methoxy-4-(4-morpholinyl)phenyl]amino]-4-pyrimidinyl]amino]phenyl]methanesulfonamide hydrochloride [CZC54252]
- inhibition of TNF-alpha, dose dependence (BMDC from LRRK2 Tg mice [8]): dose dependent
- ZymD-induced cytokine production (BMDC from LRRK2 Tg mice [8]; BMDC from LRRK2 Tg mice): greatly reduced
- production of pro-inflammatory cytokine mRNAs (TNF-alpha, TL1A, IL-23p19, IL-6 and IL-1beta mRNAs) (BMDC from LRRK2 Tg mice [8]; [10]): suppressed
